System: bone marrow-derived dendritic cells
Assay: Migration filter chemotaxis assay (chemotaxis index)
Assay type: cell-based
Method: The formyl peptide fMLP (formyl-Met-Leu-Phe) chemoattractant has been studied in addition to the protein chemokine MIP-3α. The formyl peptide is a bacterial byproduct that attracts DC's to sites of infection. It has been reported in the literature to be attractive for iDC's in mice and humans. […] For these experiments, DC's were placed on the top of a migration filter containing 5-μm pores with a reservoir of fMLP (or MIP-3α) at the indicated concentration on the other side. After 90 minutes, the number of cells migrating in response to the chemoattractants was counted and compared to controls. In FIG. 18, CI is the chemotaxis index, defined as (number of migrated cells in chemokine)/(number of migrated cells in control without chemokine).
The literature reports CI up to ≈5 max for bone-marrow-derived dendritic cells (BMDC's), but this experiment was carried out on late-stage DC cultures (DC's are starting to mature on Day 7) and the culture was not purified, thus a significant contamination with neutrophils is likely present; thus the real CI is possibly higher.

Row | Substance | maximal potency of attraction of dendritic cells (5-μm pore migration filter, 90 minutes, Day 7 unpurified cultures, high concentrations of fMLP) | concentration giving maximal migration (previous experiments, in line with literature reports)
1 | formyl-Met-Leu-Phe [fMLP] | comparable to MIP-3α | 
2 | MIP-3α: protein chemokine |  | 1 µg/mL

From patent US20060078540A1, “Dendritic cell nodes” (priority 2003, published 2006)
